The source of these data is patent US9526802B2, “Nucleic acid complexes” (Purdue Research Foundation, priority 2012, dated 2016).

Each structure is given as a SMILES string. Some results are limits rather than exact numbers.

Data set [1] has as its system CHO-GFP cells. The experiment in a line: Cell viability assay (1), MTS. The data set is classed as cell-based. The procedure: FIG. 3 depicts cell viabilities of 1, 2, 3, Chol-PVA-PEG and Chol-PVA-PEG+1 host:guest pendant polymer complexes in CHO-GFP cells using 25 kD bPEI as control.
The cytotoxicity of the amino-CD derivatives in comparison with bPEI (25 kDa) was evaluated using the MTS assay in CHO-GFP cell lines. The relative cell viabilities were measured as a function of amine densities of the polymers. […] After 24 h, culture media were replaced with serum-free culture media containing increasing amine concentrations of amino-CD, polymer and the polymer:CD complexes and the cells were incubated for 24 h. After 24 h, 15 μl of MTS reagent was added to each well and incubated for 2 h. […] All experiments were conducted for three samples and averaged. […] In this study, LD50 was the concentration of a gene carrier at which the relative cell viability decreased to 50%.

Data set [2] relates to pDNA. As to the kind of experiment: Gel shift assay. The data set is classed as binding. To be noted: various N:P ratios, compared among 4, 5, 6. The procedure:
The complexation ability of the systems was studied by gel shift assay. Agarose gels (1% w/v) containing ethidium bromide were made in 1× TE buffer. Transfection complexes were loaded onto the gel at various N:P ratios and 200 ng of DNA added to the wells. The gels were run at 50 V for about 1 h and visualized.
Also, in the absence of polymer, higher N:P ratios were used to condense pDNA effectively. […] This improved condensation capability of 6 relative to 4 and 5 can be attributed to the availability of both the nitrogens on the hydrazine moiety for interaction with pDNA.

In turn, `CNCCN(C)C[C@H]1O[C@@H]2O[C@H]3[C@H](O)[C@@H](O)[C@@H](O[C@H]4[C@H](O)[C@@H](O)[C@@H](O[C@H]5[C@H](O)[C@@H](O)[C@@H](O[C@H]6[C@H](O)[C@@H](O)[C@@H](O[C@H]7[C@H](O)[C@@H](O)[C@@H](O[C@H]8[C@H](O)[C@@H](O)[C@@H](O[C@H]1[C@H](O)[C@H]2O)O[C@@H]8CO)O[C@@H]7CO)O[C@@H]6CO)O[C@@H]5CO)O[C@@H]4CO)O[C@@H]3CO` [Compound 2, Mono-6-(N,N′-dimethylethane-1,2-diamine)-6-deoxy-β-cyclodextrin] came in with an LD50 in data set [1] greater than 10 mM.

In the case of `NNC[C@H]1O[C@@H]2O[C@H]3[C@H](O)[C@@H](O)[C@@H](O[C@H]4[C@H](O)[C@@H](O)[C@@H](O[C@H]5[C@H](O)[C@@H](O)[C@@H](O[C@H]6[C@H](O)[C@@H](O)[C@@H](O[C@H]7[C@H](O)[C@@H](O)[C@@H](O[C@H]8[C@H](O)[C@@H](O)[C@@H](O[C@H]1[C@H](O)[C@H]2O)O[C@@H]8CNN)O[C@@H]7CNN)O[C@@H]6CNN)O[C@@H]5CNN)O[C@@H]4CNN)O[C@@H]3CNN` [Compound 6, hepta-6-hydrazyl-β-CD], the “capacity for condensing pDNA” value in data set [2] was “greatest capacity for condensing pDNA”.
